Source: patent US8003655B2, “Substituted sulphoximines as TIE2 inhibitors and salts thereof, pharmaceutical compositions comprising same, methods of preparing same and uses of same” (Bayer Schering Pharma AG, priority 2006, dated 2011)

How the values were obtained:
Format in all cases: biochemical
CDK2/CycE = molecular target: T1, CDK2/CycE (Homo sapiens, UniProt P24941); assay: CDK2 HTRF Assay (assay 4); conditions: 10 μM ATP, pIC50 = −log IC50 in molar concentration
T1 construct: GST; purchased ProQinase GmbH (Freiburg, Germany); host or cells: insect cells (Sf9)
From the text: CDK2/CycE-inhibitory activity of compounds of the present invention was quantified employing the CDK2/CycE HTRF assay as described in the following paragraphs.
Recombinant fusion proteins of GST and human CDK2 and of GST and human CycE, expressed in insect cells (Sf9) and purified by Glutathion-Sepharose affinity chromatography, were purchase from ProQinase GmbH (Freiburg, Germany). As substrate for the kinase reaction biotinylated peptide biotin-Ttds-YISPLKSPYKISEG (C-terminus in amid form) was used which can be purchased e.g. form the company JERINI peptide technologies (Berlin, Germany).
CDK2/CycE was incubated for 60 min at 22° C. in the presence of different concentrations of test compounds in 5 μl assay buffer [50 mM Tris/HCl pH 8.0, 10 mM MgCl2, 1.0 mM dithiothreitol, 0.1 mM sodium ortho-vanadate, 10 μM adenosine-tri-phosphate (ATP), 0.75 μM substrate, 0.01% (v/v) Nonidet-P40 (Sigma), 1% (v/v) dimethylsulfoxide]. The concentration of CDK2/CycE was adjusted depending of the activity of the enzyme lot and was chosen appropriate to have the assay in the linear range, typical concentrations were in the range of 1 ng/ml. The reaction was stopped by the addition of 5 μl of a solution of HTRF detection reagents (0.2 μM streptavidine-XLent and 3.4 nM Phospho-(Ser) CDKs Substrate Antibody [product #2324B, Cell Signalling Technology, Danvers, Mass., USA} and 4 nM Prot-A-EuK [Protein A labeled with Europium Cryptate from Cis biointernational, France, product no. 61PRAKLB]) in an aqueous EDTA-solution (100 mM EDTA, 800 mM KF, 0.2% (w/v) bovine serum albumin in 100 mM HEPES/NaOH pH 7.0).

Tie2 = molecular target: T2, Tie2 (Homo sapiens, UniProt Q02763); assay: Tie2-Kinase HTRF-Assay without kinase preactivation (assay 2); conditions: 10 μM ATP, pIC50 = −log IC50 in molar concentration, read-out: Tie 2 activity (assay 2)
T2 construct: A recombinant fusion protein of GST and the intracellular domains of Tie2; GST; made in house; host or cells: insect cells (Hi-5)
From the text: Tie2-inhibitory activity of compounds of the present invention was quantified employing two Tie2 HTRF assay as described in the following paragraphs.
A recombinant fusion protein of GST and the intracellular domains of Tie2, expressed in insect cells (Hi-5) and purified by Glutathion-Sepharose affinity chromatography was used as kinase. Alternatively, commercially available GST-Tie2-fusion protein (Upstate Biotechnology, Dundee, Scotland) can be used as substrate for the kinase reaction the biotinylated peptide biotin-Ahx-EPKDDAYPLYSDFG (C-terminus in amid form) was used which can be purchased e.g. from the company Biosynthan GmbH (Berlin-Buch, Germany). Detection of phosphorylated product is achieved specifically by a trimeric detection complex consisting of the phosphorylated substrate, streptavidin-XLent (SA-XLent) which binds to biotin, and Europium Cryptate-labeled anti-phosphotyrosine antibody PT66 which binds to phosphorylated tyrosine.
Tie2 (3.5 ng/measurement point) was incubated for 60 min at 22° C. in the presence of 10 μM adenosine-tri-phosphate (ATP) and 1 μM substrate peptide (biotin-Ahx-EPKDDAYPLYSDFG-NH2) with different concentrations of test compounds (0 μM and concentrations in the range 0.001-20 μM) in 5 μl assay buffer [50 mM Hepes/NaOH pH 7, 10 mM MgCl2, 0.5 mM MnCl2, 1.0 mM dithiothreitol, 0.01% NP40, protease inhibitor mixture (“Complete w/o EDTA” from Roche, 1 tablet per 2.5 ml), 1% (v/v) dimethylsulfoxide]. The reaction was stopped by the addition of 5 μl of an aqueous buffer (25 mM Hepes/NaOH pH 7.5, 0.28% (w/v) bovine serum albumin) containing EDTA (90 mM) and the HTRF (Homogeneous Time Resolved Fluorescence) detection reagents streptavidine-XLent (0.2 μM, from Cis Biointernational, Marcoule, France) and PT66-Eu-Chelate (0.3 ng/μl; a europium-chelate labelled anti-phospho-tyrosine antibody from Perkin Elmer).
(§1) The resulting mixture was incubated 1 h at 22° C. to allow the binding of the biotinylated phosphorylated peptide to the streptavidine-XLent and the PT66-Eu-Chelate. Subsequently the amount of phosphorylated substrate peptide was evaluated by measurement of the resonance energy transfer from the PT66-Eu-Chelate to the streptavidine-XLent. Therefore, the fluorescence emissions at 620 nm and 665 nm after excitation at 350 nm was measured in a HTRF reader, e.g. a Rubystar (BMG Labtechnologies, Offenburg, Germany) or a Viewlux (Perkin-Elmer). The ratio of the emissions at 665 nm and at […] was taken as the measure for the amount of phosphorylated substrate peptide. The data were normalised (enzyme reaction without inhibitor=0% inhibition, all other assay components but no enzyme=100% inhibition) and IC50 values were calculated by a 4 parameter fit using an inhouse software.

preactivated Tie2 = molecular target: T3, preactivated Tie2 (Homo sapiens, UniProt Q02763); assay: Tie2-Kinase HTRF-Assay with kinase preactivation (assay 3); conditions: 10 μM ATP, pIC50 = −log IC50 in molar concentration, read-out: Tie 2 activity (assay 3)
T3 construct: A recombinant fusion protein of GST and the intracellular domains of Tie2; GST; made in house; host or cells: insect cells (Hi-5)
Experimental: Assay 3: Tie2-Kinase HTRF-Assay with Kinase Preactivation
A recombinant fusion protein of GST and the intracellular domains of Tie2, expressed in insect cells (Hi-5) and purified by Glutathion-Sepharose affinity chromatography was used as kinase. As substrate for the kinase reaction the biotinylated peptide biotin-Ahx-EPKDDAYPLYSDFG (C-terminus in amid form) was used which can be purchased e.g. from the company Biosynthan GmbH (Berlin-Buch, Germany).
For activation, Tie2 was incubated at a conc. 12.5 ng/μl of for 20 min at 22° C. in the presence of 250 μM adenosine-tri-phosphate (ATP) in assay buffer [50 mM Hepes/NaOH pH 7, 10 mM MgCl2, 0.5 mM MnCl2, 1.0 mM dithiothreitol, 0.01% NP40, protease inhibitor mixture (“Complete w/o EDTA” from Roche, 1 tablet per 2.5 ml)].
For the subsequent kinase reaction, the preactivated Tie2 (0.5 ng/measurement point) was incubated for 20 min at 22° C. in the presence of 10 μM adenosine-tri-phosphate (ATP) and 1 μM substrate peptide (biotin-Ahx-EPKDDAYPLYSDFG-NH2) with different concentrations of test compounds (0 μM and concentrations in the range 0.001-20 μM) in 5 μl assay buffer [50 mM Hepes/NaOH pH 7, 10 mM MgCl2, 0.5 mM MnCl2, 0.1 mM sodium ortho-vanadate, 1.0 mM dithiothreitol, 0.01% NP40, protease inhibitor mixture (“Complete w/o EDTA” from Roche, 1 tablet per 2.5 ml), 1% (v/v) dimethylsulfoxide]. The reaction was stopped by the addition of 5 μl of an aqueous buffer (25 mM Hepes/NaOH pH 7.5, 0.28% (w/v) bovine serum albumin) containing EDTA (90 mM) and the HTRF (Homogeneous Time Resolved Fluorescence) detection reagents streptavidine-XLent (0.2 μM, from Cis Biointernational, Marcoule, France) and PT66-Eu-Chelate (0.3 ng/μl; a europium-chelate labelled anti-phospho-tyrosine antibody from Perkin Elmer).
as §1

T2 sequence (Q02763 770-1124 limits assumed): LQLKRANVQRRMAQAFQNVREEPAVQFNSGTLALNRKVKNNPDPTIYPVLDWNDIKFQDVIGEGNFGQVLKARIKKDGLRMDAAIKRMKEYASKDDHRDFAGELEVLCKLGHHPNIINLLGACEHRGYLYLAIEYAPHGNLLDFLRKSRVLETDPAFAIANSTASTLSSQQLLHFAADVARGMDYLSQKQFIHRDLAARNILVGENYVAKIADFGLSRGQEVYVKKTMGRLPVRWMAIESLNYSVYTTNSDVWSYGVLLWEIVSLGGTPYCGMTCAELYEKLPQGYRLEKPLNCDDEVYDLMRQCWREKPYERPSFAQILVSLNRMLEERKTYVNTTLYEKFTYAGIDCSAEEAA
T3 sequence (Q02763 770-1124 limits assumed): as above

Row | Structure (SMILES) | IC50 (CDK2/CycE) [nM] | IC50 (Tie2) [nM] | IC50 (preactivated Tie2) [nM]
1 | CCOC(=O)N=S(C)(=O)c1cccc(Nc2ncc(-c3ccc(NC(=O)Nc4cc(C(F)(F)F)ccc4F)c(F)c3)c(OC)n2)c1 (racemic) [Example 31, 1-{4-[2-({3-[(RS)-N-(Ethoxycarbonyl)-S-methylsulfonimidoyl]phenyl}amino)-4-(methoxy)-pyrimidin-5-yl]-2-fluorophenyl}-3-[2-fluoro-5-(trifluoromethyl)-phenyl]urea] | > 10000 | < 100 | < 100
2 | CCOC(=O)N=S(C)(=O)c1cccc(Nc2ncc(-c3ccc(NC(=O)Nc4cc(C(F)(F)F)ccc4F)c(F)c3)c(NCCN3CCN(C)CC3)n2)c1 (racemic) [Example 28, 1-{4-[2-({3-[(RS)-N-(Ethoxycarbonyl)-S-methylsulfonimidoyl]phenyl}amino)-4-{[2-(N-methyl-piperazin-4-yl)ethyl]amino}pyri-midin-5-yl]-2-fluorophenyl}-3-[2-fluoro-5-(trifluoromethyl)-phenyl]urea] | > 10000 | < 100 | 100 to 1000
3 | CNc1nc(Nc2cccc(S(C)(=N)=O)c2)ncc1-c1ccc(NC(=O)Nc2cc(C(F)(F)F)ccc2F)c(F)c1 (racemic) [Example 49, 1-{2-Fluoro-4-[4-(methylamino)-2-{[3-(RS)-(S-methylsulfonimidoyl)phenyl]amino}-pyrimidin-5-yl]phenyl}-3-[2-fluoro-5-(trifluoromethyl)-phenyl]urea] | > 10000 | < 100 | < 100
4 | COc1nc(Nc2cccc(S(C)(=N)=O)c2)ncc1-c1ccc(NS(=O)(=O)c2cccc(Cl)c2Cl)c(F)c1 (racemic) [Example 46, 2,3-Dichloro-N-[2-fluoro-4-(4-methoxy-2-{[3-(RS)-(S-methylsulfonimidoyl)phenyl]amino}pyrimi-din-5-yl)phenyl]benzenesul-fonamide] | > 10000 | 100 to 1000 | 100 to 1000
5 | CCOC(=O)N=S(C)(=O)c1cccc(Nc2ncc(-c3ccc(NS(=O)(=O)c4cccc(Cl)c4Cl)cc3)c(N[C@H](C)CO)n2)c1 (mixture of isomers) [Example 2, 2,3-Dichloro-N-{4-[2-({3-[(RS)-N-(ethoxycarbonyl)-S-methylsulfonimidoyl]phenyl}amino)-4-{[(R)-2-hydroxy-1-methylethyl]amino}pyrimidin-5-yl]-phenyl}benzenesulfonamide] | > 10000 | 100 to 1000 | 100 to 1000
6 | CCOC(=O)N=S(C)(=O)c1cccc(Nc2ncc(-c3ccc(NC(=O)C4(c5ccccc5)CC4)cc3)c(N[C@H](C)CO)n2)c1 (mixture of isomers) [Example 9, N-{4-[2-({3-[(RS)-N-(Ethoxycarbonyl)-S-methylsulfonimidoyl]phenyl}amino)-4-{[(R)-2-hydroxy-1-methylethyl]amino}-pyrimidin-5-yl]phenyl}-1-phenylcyclopropane-carboxamide] | > 10000 | 100 to 1000 | 100 to 1000
7 | C[C@H](CO)Nc1nc(Nc2cccc(S(C)(=N)=O)c2)ncc1-c1ccc(NS(=O)(=O)c2cccc(Cl)c2Cl)c(F)c1 (mixture of isomers) [Example 42, 2,3-Dichloro-N-[2-fluoro-4-(4-{[(R)-2-hydroxy-1-methylethyl]amino}-2-{[3-(RS)-(S-methylsulfonimidoyl)phenyl]amino}-pyrimidin-5-yl)phenyl]benzene-sulfonamide] | > 10000 | 100 to 1000 | < 100
8 | CCOC(=O)N=S(C)(=O)c1cccc(Nc2ncc(-c3ccc(NS(=O)(=O)c4cccc(Cl)c4Cl)c(F)c3)c(N[C@H](C)CO)n2)c1 (mixture of isomers) [Example 13, 2,3-Dichloro-N-{4-[2-({3-[(RS)-N-(ethoxycarbonyl)-S-methylsulfonimidoyl]phenyl}amino)-4-{[(R)-2-hydroxy-1-methylethyl]amino}-pyrimidin-5-yl]-2-fluorophenyl}-benzenesulfonamide] | > 10000 | 100 to 1000 | 100 to 1000
9 | CS(=N)(=O)c1cccc(Nc2ncc(-c3ccc(NC(=O)Nc4cc(C(F)(F)F)ccc4F)c(F)c3)c(NCCCN3CCOCC3)n2)c1 (racemic) [Example 43, 1-[2-Fluoro-4-(2-{[3-(RS)-(S-methylsulfonimidoyl)phenyl]amino}-4-[(3-morpholin-4-ylpropyl)amino]-pyrimidin-5-yl)phenyl]-3-[2-fluoro-5-(trifluoromethyl)-phenyl]urea] | > 10000 | < 100 | < 100
10 | C[C@H](CO)Nc1nc(Nc2cccc(S(C)(=N)=O)c2)ncc1-c1ccc(NC(=O)C2(c3ccccc3)CC2)cc1 (mixture of isomers) [Example 33, N-{4-[4-{[(R)-2-Hydroxy-1-methylethyl]amino}-2-({3-[(RS)-S-methylsulfonimidoyl]phenyl}amino)pyrimidin-5-yl]phenyl}-1-phenylcyclopropanecarboxamide] | > 10000 | < 100 | 100 to 1000
11 | COc1nc(Nc2cccc(S(C)(=N)=O)c2)ncc1-c1ccc(NC(=O)Nc2cc(C(F)(F)F)ccc2F)c(F)c1 (racemic) [Example 45, 1-[2-Fluoro-4-(4-methoxy-2-{[3-(RS)-(S-methylsulfon-imidoyl)phenyl]-amino}pyrimidin-5-yl)phenyl]-3-[2-fluoro-5-(trifluoromethyl)phenyl]urea] | > 10000 | < 100 | < 100
